Test results reported in patent publication US20110053983A1, “(5R)-1,5-DIARYL-4,5-DIHYDRO-1H-PYRAZOLE-3-CARBOXAMIDINE DERIVATIVES HAVING CB1-ANTAGONISTIC ACTIVITY” (priority 2008, published 2011).
“Also recorded” adds a separate entry of the source. Where two headings read alike, the source gives them in different places.

Experiments:
cannabinoid-CB1 receptor = target: T1, cannabinoid-CB1 receptor (Rattus norvegicus, UniProt P20272); test: In vivo CB1 receptor antagonism, CP-55,940-induced hypotension test; conditions: for ED50: po, CP-55,940 (0.1 mg/kg i.v.) induced hypotension, read-out: CB-agonist induced blood pressure rat ID50; for activity in the in vivo CB1 mediated (CP-55,940-induced) hypotension test, in words: oral administration
T1 construct: Male normotensive rats (225-300 g; Harlan, Horst, The Netherlands) were anaesthetized; from tissue; host or cells: whole animal: male normotensive rats (Harlan)
Protocol: In vivo cannabinoid-CB1 receptor antagonism was assessed with the CP-55,940-induced hypotension test in rat. Male normotensive rats (225-300 g; Harlan, Horst, The Netherlands) were anaesthetized with pentobarbital (80 mg/kg ip). Blood pressure was measured, via a cannula inserted into the left carotid artery, by means of a Spectramed DTX-plus pressure transducer (Spectramed B. V., Bilthoven, The Netherlands). After amplification by a Nihon Kohden Carrier Amplifier (Type AP-621G; Nihon Kohden B. V., Amsterdam, The Netherlands), the blood pressure signal was registered on a personal computer (Compaq Deskpro 386s), by means of a Po-Ne-Mah data-acquisition program (Po-Ne-Mah Inc., Storrs, USA). Heart rate was derived from the pulsatile pressure signal. All compounds were administered orally as a microsuspension in 1% methylcellulose, 30 minutes before induction of the anesthesia, 60 minutes prior to administration of the CB1 receptor agonist CP-55,940. The injection volume was 10 ml/kg. After haemodynamic stabilization the CB1 receptor agonist CP-55,940 (0.1 mg/kg i. v.) was administered and the hypotensive effect established (Wagner, 2001).

[1] = target: human cannabinoid CB1 receptor (Homo sapiens, UniProt P21554); test: In vitro affinity for cannabinoid-CB1 receptors, displacement of [3H]CP-55,940; assay type: binding
Protocol: In vitro affinity for cannabinoid-CB1 receptors was determined using membrane preparations of Chinese hamster ovary (CHO) cells wherein the human cannabinoid CB1 receptor was stably transfected in conjunction with [^3H]CP-55,940 as radioligand. After incubation of a freshly prepared cell membrane preparation with the [^3H]-ligand, with or without addition of compounds of the invention, separation of bound and free ligand was performed by filtration over glassfiber filters. Radioactivity on the filter was measured by liquid scintillation counting. The binding data were either obtained by CEREP (128, rue Danton, 92500 Rueil-Malmaison, France) or at Solvay Pharmaceuticals B.V. (C. J. van Houtenlaan 36, 1381 C P Weesp, The Netherlands).

human CB1 receptors = human CB1 receptors (Homo sapiens, UniProt P21554); test: In vitro CB1 receptor antagonism, inhibition of WIN 55,212-2-induced [3H]-arachidonic acid release in CHO cells; assay type: cell-based; conditions: for Kb: read-out: functional activity inhibition AA release [3H]-Arachidonic acid pA2 (converted)
Protocol: In vitro cannabinoid-[…] receptor antagonism was assessed with human CB1 receptors cloned in Chinese hamster ovary (CHO) cells. CHO cells were grown in a Dulbecco's Modified Eagle's medium (DMEM) culture medium, supplemented with 10% heat-inactivated fetal calf serum. Medium was aspirated and replaced by DMEM, without fetal calf serum, but containing [^3H]-arachidonic acid and incubated overnight in a cell culture stove (5% CO2/95% air; 37° C.; water-saturated atmosphere). During this period [^3H]-arachidonic acid was incorporated in membrane phospholipids. On the test day, medium was aspirated and cells were washed three times using 0.5 mL DMEM, containing 0.2% bovine serum albumin (BSA). Stimulation of the CB1 receptor by WIN 55,212-2 lead to activation of PLA2 followed by release of [^3H]-arachidonic acid into the medium. This WIN 55,212-2-induced release was concentration-dependently antagonized by CB1 receptor antagonists.

[2] = h-CB1 receptor, CHO cell membranes, read-out: receptor binding displacement [3H]-CP-55,940 pKi (converted)
[3] = (5R) versus (5S)-enantiomer (compound 2)
[4] = h-CB1 receptor in CHO cells, WIN 55,212-2-induced release

human CB1 receptors, sequence (P21554 whole entry): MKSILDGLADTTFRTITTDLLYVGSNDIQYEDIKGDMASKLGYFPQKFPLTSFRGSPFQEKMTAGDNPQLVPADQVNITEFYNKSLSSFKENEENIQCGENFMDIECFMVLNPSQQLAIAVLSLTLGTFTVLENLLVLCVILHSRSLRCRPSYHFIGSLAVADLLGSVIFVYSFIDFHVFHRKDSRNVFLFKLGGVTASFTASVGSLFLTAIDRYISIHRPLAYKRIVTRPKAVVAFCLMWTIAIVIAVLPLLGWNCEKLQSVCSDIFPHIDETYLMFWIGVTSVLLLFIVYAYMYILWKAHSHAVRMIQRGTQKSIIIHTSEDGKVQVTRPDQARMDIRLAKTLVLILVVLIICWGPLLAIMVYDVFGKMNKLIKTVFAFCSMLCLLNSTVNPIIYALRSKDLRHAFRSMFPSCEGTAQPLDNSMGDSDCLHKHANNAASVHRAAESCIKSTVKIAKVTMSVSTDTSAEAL
human cannabinoid CB1 receptor, sequence (P21554 whole entry): as above
T1 sequence (P20272 whole entry): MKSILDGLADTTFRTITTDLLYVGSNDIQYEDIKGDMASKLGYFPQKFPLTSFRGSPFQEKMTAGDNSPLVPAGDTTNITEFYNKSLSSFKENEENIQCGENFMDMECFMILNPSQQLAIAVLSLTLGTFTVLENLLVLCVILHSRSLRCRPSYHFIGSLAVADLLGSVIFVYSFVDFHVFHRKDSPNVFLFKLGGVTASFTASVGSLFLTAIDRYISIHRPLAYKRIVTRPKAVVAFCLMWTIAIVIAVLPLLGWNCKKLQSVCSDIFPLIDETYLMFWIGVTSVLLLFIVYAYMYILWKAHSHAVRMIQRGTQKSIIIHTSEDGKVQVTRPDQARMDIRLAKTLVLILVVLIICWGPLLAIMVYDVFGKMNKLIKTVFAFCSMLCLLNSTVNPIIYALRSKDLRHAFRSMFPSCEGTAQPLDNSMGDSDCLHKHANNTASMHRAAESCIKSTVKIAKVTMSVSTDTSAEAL

Structure (SMILES) | Ki [1, 2] [nM] | activity in the in vivo CB1 mediated (CP-55,940-induced) hypotension test, in words (cannabinoid-CB1 receptor) | ED50 (cannabinoid-CB1 receptor) [mg/kg] | other results
CN/C(=N\S(=O)(=O)N1CCCCC1)C1=NN(c2ccc(Cl)cc2)C(c2ccccc2)C1 (racemic) [N-[(piperidin-1-yl)-sulfonyl]-N′-methyl-1-(4-chlorophenyl)-5-phenyl-4,5-dihydro-(1H)-pyrazole-3-carboxamidine, reference compound] | – | – | > 30 | –
CN=C(NS(=O)(=O)N1CCC(F)(F)CC1)C1=NN(c2ccc(Cl)cc2)C(c2ccccc2F)C1 (racemic) [racemate 2, N-[(4,4-difluoropiperidin-1-yl)sulfonyl]-N′-methyl-1-(4-chlorophenyl)-5-(2-fluorophenyl)-4,5-dihydro-(1H)-pyrazole-3-carboxamidine] | – | – | – | melting point: 166 to 167 °C
CN/C(=N\S(=O)(=O)N1CCC(F)(F)CC1)C1=NN(c2ccc(Cl)cc2)[C@@H](c2ccccc2)C1 (single isomer, unassigned) [Compound 1] | 10 | active; also recorded: potent activities | 6 | affinity for human CB1 receptors relative to the (5S)-enantiomer [1, 3]: 25 fold; antagonist potency (pA2) relative to the (5S)-enantiomer (human CB1 receptors; [3]): 40 times; Kb (human CB1 receptors; [4]): 1.58 nM
CN/C(=N\S(=O)(=O)N1CCC(F)(F)CC1)C1=NN(c2ccc(Cl)cc2)[C@H](c2ccccc2)C1 (single isomer, unassigned) [Compound 2] | 251 | inactive | > 30 | Kb (human CB1 receptors; [4]): 79.4 nM
CN/C(=N\S(=O)(=O)N1CCC(C(F)(F)F)CC1)C1=NN(c2ccc(Cl)cc2)[C@@H](c2ccccc2)C1 [Compound 4, 5R-(+)-N-[(4-(trifluoromethyl)piperidin-1-yl)sulfonyl]-N′-methyl-1-(4-chlorophenyl)-5-phenyl-4,5-dihydro-(1H)-pyrazole-3-carboxamidine] | – | – | – | Ki [1]: 3.16 nM; functional activity inhibition AA release [3H]-Arachidonic acid pA2 (human CB1 receptors; [4]): 9.5
CN/C(=N\S(=O)(=O)N1CCCCC1)C1=NN(c2ccc(Cl)cc2)C(c2ccccc2)C1 (stereo not shown) [EP 1 713 475 Compound 10, reference compound] | – | – | > 30 | –

Continued, in another order:

Ki [1, 2] [nM] | activity in the in vivo CB1 mediated (CP-55,940-induced) hypotension test, in words (cannabinoid-CB1 receptor) | Structure (SMILES) | ED50 (cannabinoid-CB1 receptor) [mg/kg] | other results
25.1 | potent activities | CN=C(NS(=O)(=O)N1CCC(F)(F)CC1)C1=NN(c2ccc(Cl)cc2)C(c2ccccc2)C1 (racemic) [racemate (1 + 2), N-[(4,4-difluoropiperidin-1-yl)sulfonyl]-N′-methyl-1-(4-chlorophenyl)-5-phenyl-4,5-dihydro-(1H)-pyrazole-3-carboxamidine] | 9 | –
15.8 | – | CN/C(=N\S(=O)(=O)N1CCC(F)CC1)C1=NN(c2ccc(Cl)cc2)[C@@H](c2ccccc2)C1 [Compound 3, 5R-(+)-N-[(4-fluoropiperidin-1-yl)sulfonyl]-N′-methyl-1-(4-chlorophenyl)-5-phenyl-4,5-dihydro-(1H)-pyrazole-3-carboxamidine] | – | –
